Measurements published in PubChem BioAssay (NCI).
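48-hour exposure; five concentrations; linearly interpolated endpoints. Abbreviation: GI50, concentration required for 50% inhibition of growth. Definition used: TGI = concentration required for complete inhibition of growth.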

Legend:
Experiment in all cases: NCI-60 cell line screen, 48 h
A498 renal = system: A498 renal
COLO 205 colon = system: COLO 205 colon
ACHN renal = system: ACHN renal
SNB-19 CNS = system: SNB-19 CNS
MALME-3M melanoma = system: MALME-3M melanoma
PC-3 prostate = system: PC-3 prostate
SN12C renal = system: SN12C renal
EKVX NSCLC = system: EKVX NSCLC
NCI-H522 lung = system: NCI-H522 lung
HCC-2998 colon = system: HCC-2998 colon
NCI/ADR-RES ovarian = system: NCI/ADR-RES ovarian
RPMI-8226 leukemia = system: RPMI-8226 leukemia
DU-145 prostate = system: DU-145 prostate
M14 melanoma = system: M14 melanoma
SNB-75 CNS = system: SNB-75 CNS
KM12 colon = system: KM12 colon
UACC-257 melanoma = system: UACC-257 melanoma
SK-OV-3 ovarian = system: SK-OV-3 ovarian
BT-549 breast = system: BT-549 breast
U251 CNS = system: U251 CNS
A549 NSCLC = system: A549 NSCLC
NCI-H23 lung = system: NCI-H23 lung
TK-10 renal = system: TK-10 renal
SK-MEL-2 melanoma = system: SK-MEL-2 melanoma
786-0 renal = system: 786-0 renal
SK-MEL-5 melanoma = system: SK-MEL-5 melanoma
K-562 leukemia = system: K-562 leukemia
MOLT-4 leukemia = system: MOLT-4 leukemia
MCF7 breast = system: MCF7 breast
CAKI-1 renal = system: CAKI-1 renal
NCI-H226 lung = system: NCI-H226 lung
OVCAR-4 ovarian = system: OVCAR-4 ovarian
UO-31 renal = system: UO-31 renal
RXF 393 renal = system: RXF 393 renal
SF-268 CNS = system: SF-268 CNS
MDA-MB-231 breast = system: MDA-MB-231 breast
IGROV1 ovarian = system: IGROV1 ovarian
MDA-MB-435 = system: MDA-MB-435
OVCAR-5 ovarian = system: OVCAR-5 ovarian
HT29 colon = system: HT29 colon
HCT-15 colon = system: HCT-15 colon
HCT-116 colon = system: HCT-116 colon
UACC-62 melanoma = system: UACC-62 melanoma
HOP-92 NSCLC = system: HOP-92 NSCLC
SK-MEL-28 melanoma = system: SK-MEL-28 melanoma
SF-295 CNS = system: SF-295 CNS
SW-620 colon = system: SW-620 colon
NCI-H460 lung = system: NCI-H460 lung
SR leukemia = system: SR leukemia
LOX IMVI melanoma = system: LOX IMVI melanoma
OVCAR-3 ovarian = system: OVCAR-3 ovarian
HOP-62 NSCLC = system: HOP-62 NSCLC
OVCAR-8 ovarian = system: OVCAR-8 ovarian
CCRF-CEM leukemia = system: CCRF-CEM leukemia
HL-60(TB) leukemia = system: HL-60(TB) leukemia
SF-539 CNS = system: SF-539 CNS
T-47D breast = system: T-47D breast

Nn1c(CCCCCCCCc2nnc(COc3ccc(Cl)cc3)n2N)nnc1COc1ccc(Cl)cc1
TGI (A498 renal): > 100000 nM
TGI (COLO 205 colon): > 100000 nM
TGI (ACHN renal): > 100000 nM
TGI (SNB-19 CNS): > 100000 nM
TGI (MALME-3M melanoma): > 100000 nM
TGI (PC-3 prostate): > 100000 nM
TGI (SN12C renal): > 100000 nM
TGI (EKVX NSCLC): > 100000 nM
TGI (NCI-H522 lung): > 100000 nM
TGI (HCC-2998 colon): > 100000 nM
TGI (NCI/ADR-RES ovarian): > 100000 nM
TGI (RPMI-8226 leukemia): > 100000 nM
TGI (DU-145 prostate): > 100000 nM
TGI (M14 melanoma): > 100000 nM
TGI (SNB-75 CNS): > 100000 nM
TGI (KM12 colon): > 100000 nM
TGI (UACC-257 melanoma): > 100000 nM
TGI (SK-OV-3 ovarian): > 100000 nM
TGI (BT-549 breast): > 100000 nM
TGI (U251 CNS): > 100000 nM
TGI (A549 NSCLC): > 100000 nM
TGI (NCI-H23 lung): > 100000 nM
TGI (TK-10 renal): > 100000 nM
TGI (SK-MEL-2 melanoma): > 100000 nM
TGI (786-0 renal): > 100000 nM
TGI (SK-MEL-5 melanoma): > 100000 nM
TGI (K-562 leukemia): > 100000 nM
TGI (MOLT-4 leukemia): > 100000 nM
TGI (MCF7 breast): > 100000 nM
TGI (CAKI-1 renal): 35600 nM
TGI (NCI-H226 lung): > 100000 nM
TGI (OVCAR-4 ovarian): > 100000 nM
TGI (UO-31 renal): > 100000 nM
TGI (RXF 393 renal): > 100000 nM
TGI (SF-268 CNS): > 100000 nM
TGI (MDA-MB-231 breast): > 100000 nM
TGI (IGROV1 ovarian): > 100000 nM
TGI (MDA-MB-435): > 100000 nM
TGI (OVCAR-5 ovarian): > 100000 nM
TGI (HT29 colon): > 100000 nM
TGI (HCT-15 colon): > 100000 nM
TGI (HCT-116 colon): > 100000 nM
TGI (UACC-62 melanoma): > 100000 nM
TGI (HOP-92 NSCLC): > 100000 nM
TGI (SK-MEL-28 melanoma): > 100000 nM
TGI (SF-295 CNS): > 100000 nM
TGI (SW-620 colon): > 100000 nM
TGI (NCI-H460 lung): > 100000 nM

COc1ccc2c(O)cc3c(c2c1)[C@H](CCl)CN3C(=O)c1cc2cc(NC(=O)CCN3CCOCC3)ccc2[se]1
GI50 (A498 renal): < 1 nM
TGI (A498 renal): < 1 nM
GI50 (COLO 205 colon): < 1 nM
TGI (COLO 205 colon): > 10000 nM
GI50 (SR leukemia): < 1 nM
TGI (SR leukemia): > 10000 nM
GI50 (ACHN renal): < 1 nM
TGI (ACHN renal): < 1 nM
GI50 (SNB-19 CNS): < 1 nM
TGI (SNB-19 CNS): 233 nM
GI50 (LOX IMVI melanoma): < 1 nM
TGI (LOX IMVI melanoma): 10.1 nM
GI50 (MALME-3M melanoma): < 1 nM
TGI (MALME-3M melanoma): < 1 nM
GI50 (PC-3 prostate): < 1 nM
TGI (PC-3 prostate): 69.9 nM
GI50 (SN12C renal): < 1 nM
TGI (SN12C renal): 33.4 nM
GI50 (EKVX NSCLC): < 1 nM
TGI (EKVX NSCLC): 4.71 nM
GI50 (NCI-H522 lung): < 1 nM
TGI (NCI-H522 lung): 29.8 nM
GI50 (HCC-2998 colon): < 1 nM
TGI (HCC-2998 colon): 7.15 nM
GI50 (NCI/ADR-RES ovarian): < 1 nM
GI50 (RPMI-8226 leukemia): 1.49 nM
TGI (RPMI-8226 leukemia): 26.3 nM
GI50 (DU-145 prostate): < 1 nM
TGI (DU-145 prostate): 137 nM
GI50 (SNB-75 CNS): < 1 nM
TGI (SNB-75 CNS): 1.56 nM
GI50 (OVCAR-3 ovarian): < 1 nM
TGI (OVCAR-3 ovarian): > 10000 nM
GI50 (KM12 colon): < 1 nM
GI50 (UACC-257 melanoma): < 1 nM
TGI (UACC-257 melanoma): 3.19 nM
GI50 (SK-OV-3 ovarian): < 1 nM
GI50 (BT-549 breast): 1.04 nM
TGI (BT-549 breast): 6.49 nM
GI50 (U251 CNS): < 1 nM
TGI (U251 CNS): 385 nM
GI50 (NCI-H23 lung): < 1 nM
TGI (NCI-H23 lung): 1.21 nM
GI50 (TK-10 renal): < 1 nM
GI50 (SK-MEL-2 melanoma): < 1 nM
TGI (SK-MEL-2 melanoma): < 1 nM
GI50 (786-0 renal): < 1 nM
TGI (786-0 renal): < 1 nM
GI50 (SK-MEL-5 melanoma): < 1 nM
TGI (SK-MEL-5 melanoma): < 1 nM
GI50 (HOP-62 NSCLC): < 1 nM
TGI (HOP-62 NSCLC): 2030 nM
GI50 (OVCAR-8 ovarian): < 1 nM
TGI (OVCAR-8 ovarian): 84.3 nM
GI50 (K-562 leukemia): < 1 nM
TGI (K-562 leukemia): > 10000 nM
GI50 (CCRF-CEM leukemia): < 1 nM
GI50 (MOLT-4 leukemia): < 1 nM
TGI (MOLT-4 leukemia): > 3340 nM
GI50 (MCF7 breast): < 1 nM
TGI (MCF7 breast): 1390 nM
GI50 (CAKI-1 renal): < 1 nM
TGI (CAKI-1 renal): < 1 nM
GI50 (NCI-H226 lung): < 1 nM
TGI (NCI-H226 lung): 1.63 nM
GI50 (OVCAR-4 ovarian): < 1 nM
TGI (OVCAR-4 ovarian): 783 nM
GI50 (UO-31 renal): < 1 nM
TGI (UO-31 renal): < 1 nM
GI50 (HL-60(TB) leukemia): 1.42 nM
TGI (HL-60(TB) leukemia): > 10000 nM
GI50 (RXF 393 renal): < 1 nM
TGI (RXF 393 renal): < 1 nM
GI50 (SF-268 CNS): < 1 nM
TGI (SF-268 CNS): 94.6 nM
GI50 (SF-539 CNS): < 1 nM
TGI (SF-539 CNS): 2.64 nM
GI50 (MDA-MB-231 breast): < 1 nM
TGI (MDA-MB-231 breast): 105 nM
GI50 (IGROV1 ovarian): < 1 nM
TGI (IGROV1 ovarian): 1360 nM
GI50 (OVCAR-5 ovarian): < 1 nM
TGI (OVCAR-5 ovarian): 1290 nM
GI50 (HT29 colon): < 1 nM
TGI (HT29 colon): > 3240 nM
GI50 (HCT-15 colon): < 1 nM
GI50 (HCT-116 colon): < 1 nM
TGI (HCT-116 colon): > 3250 nM
GI50 (UACC-62 melanoma): < 1 nM
TGI (UACC-62 melanoma): < 1 nM
GI50 (HOP-92 NSCLC): < 1 nM
TGI (HOP-92 NSCLC): 2.16 nM
GI50 (SK-MEL-28 melanoma): < 1 nM
TGI (SK-MEL-28 melanoma): < 1 nM
GI50 (SF-295 CNS): < 1 nM
TGI (SF-295 CNS): < 1 nM
GI50 (SW-620 colon): < 1 nM
TGI (SW-620 colon): 1050 nM
GI50 (T-47D breast): < 1 nM
GI50 (NCI-H460 lung): < 1 nM
TGI (NCI-H460 lung): 1090 nM
